Consider five compounds from US20240391945A1, “NUCLEIC ACID SYNTHESIS METHOD USING SEGMENT-TYPE AMIDITE” (NITTO DENKO CORPORATION, priority 2020, published 2024).

The data set in a line: pKa values in water of the activators. In kind it is physicochemical. As to conditions: for pKa: read-out: pKa in H2O.

The pKa is the pH at which an ionisable group is half protonated.

Turning to `c1ccc(CSc2nnn[nH]2)cc1` [BTT, 5-benzylthiotetrazole], the pKa was found to be 4.1.

For the compound saccharin 1-methylimidazole [SMI], the “pKa in H2O” value is recorded as 7.

On to `CCSc1nnn[nH]1` [ETT, 5-ethylthio-1H-tetrazole], for which the pKa turned out to be 4.3.

Take `Cn1nnnc1S` [Activator 1-Me-MCT, 5-mercapto-1-methyltetrazole]: the pKa came out at 3.86.

Regarding `Sc1nnnn1-c1ccccc1` [Activator 1-Ph-MCT, 5-mercapto-1-phenyltetrazole], the pKa worked out at 3.65.
